Columns and labels:
live HeLa cells [1] = experiment: Time lapse (pulse-chase) imaging of retained signal after photoactivation; assay type: cell-based; conditions: after 2 hours of chasing, 0 h = 100%
Procedure: FIG. 20 illustrates labeling signal and specificity evaluation during 2 hours of time lapse imaging in photoactivated Me-Mito-^13C (16) labeled live HeLa cells. Panel (a) is a plot showing quantification of retained signals after 1 hour and 2 hours imaging. The values of signals at 0 h were used as 100% signal reference. n = 6 independent experiments. Data shown as mean ± SEM. Panel (b) includes a series of representative time lapse imaging. The magnified images of the bottom cell (indicated by the dashed white box) are shown. Scale bar: 10 µm. The high mitochondria-labeling specificity of the mitochondria probe was confirmed for relatively long-term pulse-chase tracking applications. More than 85% of activated Me-Mito-^13C (16) signals retained in live HeLa cells after 2 hours of chasing ([…]) with well-maintained mitochondria labeling pattern (FIG. 20, panel b). In live HeLa cells labeled with Me-Mito-^13C (16), 405 nm laser was first used to pulse-activate the selected region of a single cell for 20 seconds (FIG. 5A, CH3, the white dashed box indicates the activation area). Immediately after photoactivation, SRS imaging at 2125 cm^-1 well resolved the distribution of mitochondria only from this activated subcellular region (FIG. 5A, Mito0 min, Pulse), implying high spatial selectivity. […]

[2] = Spontaneous Raman / hyperspectral SRS spectroscopy of probes and uncaged alkynes; assay type: physicochemical; conditions: for alkyne Raman peak / SRS channel after uncaging: organelle probes after UV / 405 nm uncaging
Text: (§1) An integrated laser (picoEMERALD, Applied Physics and Electronics, Inc.) was used as a light source for both pump and Stokes beams. It produces 2 ps pump (tunable from 770 nm - 990 nm, bandwidth 0.5 nm, spectral bandwidth ~ 7 cm-1 ) and Stokes (1031.2 nm, spectral bandwidth 10 cm-1 ) beams with 80 MHz repetition rate. Stokes beam is modulated at 20 MHz by an internal electro-optic modulator. The spatially and temporally overlapped pump and Stokes beams are introduced into an inverted multiphoton laser scanning microscopy (FV3000, Olympus), and then focused onto the sample by a 25X water objective (XLPLN25XWMP, 1.05 N.A., Olympus). Transmitted pump and Stokes beams are collected by a high N.A. condenser lens (oil immersion, 1.4 N.A., Olympus) and pass through a bandpass filter (893/209 BrightLine, 25 mm, AVR Optics) to filter out Stokes beam. A large area (10×10 mm) Si photodiode (S3590-09, Hamamatsu) is used to measure the remaining pump beam intensity. 64 V DC voltage was used on the photodiode to increase saturation threshold and reduce response time. The output current is terminated by a 50 Ω terminator and pre-filtered by an 19.2-23.6-MHz band-pass filter (BBP-21.4+, Mini-Circuits) to reduce laser and scanning noise. The signal is then demodulated by a lock-in amplifier (SR844, Stanford Research Systems) at the modulation frequency. The in-phase X output is fed back to the Olympus IO interface box (FV30-ANALOG) of the microscope. Image acquisition speed is limited by 30 µs time constant set for the lock-in amplifier. Correspondingly, we use 80 µs pixel dwell time, which gives a speed of 8.5 s frame-1 for a 320-by-320-pixel field of view. Laser powers are monitored through image acquisition by an internal power meter and power fluctuation are controlled within 5% by the laser system. 16-bit grey scale images are acquired by Fluoview software. SRS spectra were acquired by fixing the Stokes beam at 1031.2 nm and scanning the pump beam through the designated wavelength range point by point. 10 mM EdU (H2O) sample was used as a standard to give RIE of different probes. Fluorescence images were collected using the same Olympus FV3000 confocal microscope with CW laser excitation (405, 488, 561 and 640 nm, Coherent OBIS LX laser) and standard bandpass filter sets. The correlation coefficients (Pearson’s R value) between SRS images and fluorescence images were calculated using ‘Coloc 2’ tool of ImageJ.
To perform spontaneous Raman spectroscopy, spontaneous Raman spectra were acquired using an upright confocal Raman spectrometer (Horiba Raman microscope; Xplora plus). A 532 nm YAG laser is used to illuminate the sample with a power of 12 mW on sample through a 100 x, N.A. 0.9 objective (MPLANN; Olympus) with 100 µm slit and 500 µm hole. Spectro/Raman shift center was set to be 2000.04 cm-1 . With a 1200 grating, Raman shift ranges from 690.81 cm-1 to 3141.49 cm-1 was acquired to cover whole biological relevant Raman peaks. The acquired spectra were processed by the LabSpec 6 software for baseline correction.
Cyclopropenone caging has been previously adopted for photoactivation and subsequent biorthogonal labeling of fluorophores in fluorescence microscopy. […] Herein the alkyne Raman signal generation from photo-DIBO light-activation was first measured (FIG. 1A). […] Compared to 5-ethynyl-2′-deoxyuridine (EdU), the well-adopted benchmark for Raman intensity quantification, the relative Raman intensity to EdU (RIE) of the strained alkyne DIBO is only 1.8 (Table 1). […] Given this, it is reasoned that diphenylcyclopropenone (i.e. cyclopropenone-caged 1-yne, 1-cyclo, 1, FIG. 1A) should be a better photoactivatable Raman scaffold with higher Raman sensitivity after uncaging. Indeed, UV-uncaging of 1-cyclo (1), which started from a similarly weak Raman peak at 1860 cm^-1 from photo-DIBO, produced an intense sharp peak for 1-yne (2) at 2226 cm^-1 (FIG. 1B, dashed black vs solid blue spectra) with an improved RIE values to about 4

live HeLa cells [3] = experiment: SRS imaging of live HeLa cells incubated with unmethylated probes before and after 405 nm illumination; assay type: cell-based; conditions: 20 µM, 30 minutes of labeling; 2226 cm^-1 channel after 405 nm
Procedure: FIG. 7 provides exemplary results from SRS imaging of live HeLa cells incubated with 1-cyclo (1, 20 µM, 30 minutes of labeling, top) and Cyclo-Mito (7, 20 µM, 30 minutes of labeling, bottom) at the CH3 (2940 cm^-1) channel, and the expected uncaged alkyne channel (2226 cm^-1) before and after 405 nm illumination. Scale bar: 10 µm.
An integrated laser (picoEMERALD, Applied Physics and Electronics, Inc.) was used as a light source for both pump and Stokes beams. It produces 2 ps pump (tunable from 770 nm - 990 nm, bandwidth 0.5 nm, spectral bandwidth ~ 7 cm-1 ) and Stokes (1031.2 nm, spectral bandwidth 10 cm-1 ) beams with 80 MHz repetition rate. Stokes beam is modulated at 20 MHz by an internal electro-optic modulator. […] Laser powers are monitored through image acquisition by an internal power meter and power fluctuation are controlled within 5% by the laser system. […] Fluorescence images were collected using the same Olympus FV3000 confocal microscope with CW laser excitation (405, 488, 561 and 640 nm, Coherent OBIS LX laser) and standard bandpass filter sets. The correlation coefficients (Pearson’s R value) between SRS images and fluorescence images were calculated using ‘Coloc 2’ tool of ImageJ.

[4] = reported value; cited from earlier work
[5] = UV-Vis absorption spectra; assay type: physicochemical; conditions: 20 uM in DMSO
Procedure: UV-Vis absorption spectra were recorded on a Varian Cary 50 UV-Vis Spectrophotometer (Agilent).

[6] = Photoactivation (UV-uncaging) monitored by time-series spontaneous Raman spectra; assay type: physicochemical; conditions: 365 nm illumination (15 mW/cm^2); increase of alkyne peak 2226 cm^-1
Procedure: The 365 nm UV light used to activate cyclopropenones comes from a UV handlamp (Analytik Jena UVP EL Series Lamp, UVLS-24, 4 Watt, 2 UV 254/365 nm, typically used for TLC monitoring in organic synthesis). The power of 365 nm UV of this handlamp was measured to be 15 mW/cm2 on samples.
Next, the photo-uncaging kinetics for both 1-cyclo (1) and 2-cyclo (3) were compared. […] With 365 nm lamp illumination, the characteristic peaks of cyclopropenones (~1860 cm^-1) continue to drop while the alkyne peaks (2226 cm^-1) gradually increase for both molecules (FIG. 1D). […] The progression of the UV-activation reactions could also be confirmed by the change in the corresponding absorption spectra (FIG. 6).

[7] = (HP)LC-MS for assessing the stability of cyclopropenone probes in physiological condition; assay type: physicochemical; conditions: 10 mM cysteine (PBS), 37° C., HPLC trace
Procedure: The assessed probe was first dissolved in DMSO and later diluted in 10 mM cysteine (Sigma, 168149, dissolved in PBS) solution or DMEM (Corning, 35-015-CV) medium. Analytical HPLC coupled with mass spectrometry (LC-MS) was performed on Agilent 1290 infinity LC system using ZORBAX RRHD Eclipse Plus C18, 95 Å, 2.1 x 50 mm, 1.8 µm column with Agilent 6140 Series Quadrupole LCMS / LC-MS / MSD / Mass Spectrometer System. The mobile phase is water (0.1% AcOH) and acetonitrile with running method of gradient 5%-95% acetonitrile (1 ml/min, 4 min for total running time). The mass spectrometry detection region ranges from 100 to 800 AMU. The data shown in the main figures and supplementary figures are the absorption (280.8 nm) intensity traces.
It was hypothesized that this was likely because the cyclopropenone structures are susceptible to nucleophilic attack, leading to ring-opened α,β-unsaturated acids derivatives. Cysteines, glutathione, and other biological thiols are strong nucleophiles and could easily deactivate cyclopropenones. The stability of 1-cyclo (1) in 10 mM cysteine phosphate-buffered saline (PBS) at 37° C. was therefore tested, mimicking physiological conditions.

mitochondria = experiment: Live-cell photo-uncaging mitochondria imaging, SRS/fluorescence co-localization; assay type: cell-based; conditions: live HeLa cells
Text: as §1
Mitochondria imaging: Cells were incubated in 16 µM Me-Mito (12) or Me-Mito^13C (16) with complete DMEM medium for 40 minutes in the incubator. Cells were washed with PBS three times before imaging. For colocalization, 80 nM MitoTracker™ Deep Red (Invitrogen, M22426) was used to stain cells for 25 minutes. […]

[8] = SRS vs Mitotracker deep red, Fl/2225 cm^-1 channel

SMILES	activated signals retained (live HeLa cells [1])	alkyne Raman peak / SRS channel after uncaging [2]	RIE (relative Raman intensity to EdU) ([2]; 10 mM EdU (H2O) as standard)	Raman Peak ([2]; cell silent region, model systems)	uncaging signals in labeled live cells (live HeLa cells [3])	quantum yield [4]	Abs [5]	εabs [5]	uncaging kinetics k [6]	time stable to cysteine [7]	correlation coefficient (Pearson's R value), set 1 (mitochondria; [8])	correlation coefficient (Pearson's R value), set 2 (mitochondria; [8])	correlation coefficient (Pearson's R value), set 3 (mitochondria; [8])	SRS imaging at the alkyne channel after photoactivation (mitochondria; two minutes of 405 nm laser illumination, 2205 cm^-1)
Cc1cc(C)c(-[13c]2c(=O)[13c]2-c2c(C)cc(OCCC[P+](c3ccccc3)(c3ccccc3)c3ccccc3)cc2C)c(C)c1.[Br-] [Me-Mito-^13C (16)]	More than 85%	2125 cm⁻¹	–	–	–	–	–	–	–	–	–	–	–	–
O=c1c(-c2ccccc2)c1-c1ccccc1 [1-cyclo (1), diphenylcyclopropenone]	–	–	0.37	1860 cm⁻¹	did not produce any observable uncaging signals	0.78	302 nm	28600 M⁻¹ cm⁻¹	0.0044 s⁻¹	–	–	–	–	–
Cc1cc(C)c(-c2c(-c3c(C)cc(OCCC[P+](c4ccccc4)(c4ccccc4)c4ccccc4)cc3C)c2=O)c(C)c1 [Me-Mito (12)]	–	2205 cm⁻¹	–	–	–	–	–	–	–	over 48 hours	0.85	0.82	0.88	bright mitochondria pattern
